Experimental data from ChEMBL document CHEMBL4507299, “Data for DCP probe PF-04554878” (2021).

How the values were obtained:
[1] = target: Vascular endothelial growth factor receptor 1 (Homo sapiens, UniProt P17948); test: Cerep profiling assay (FLT1); design: compound concentration 10 uM
[2] = target: Tyrosine-protein kinase ABL1 (Homo sapiens, UniProt P00519); test: ABL Invitrogen kinase activity assay
[3] = target: RAC-alpha serine/threonine-protein kinase (Homo sapiens) (UniProt P31749); test: AKT1 Invitrogen kinase activity assay; conditions: Compound concentration 1.0 uM
[4] = target: Cyclin-dependent kinase 2/cyclin A (Homo sapiens) (UniProt P24941+P20248+P78396); test: (§1) CDK2/cyclinA Invitrogen kinase activity assay; type: protein-complex assay; conditions: Compound concentration 1.0 uM
[5] = target: Cyclin-dependent kinase 2/cyclin A (Homo sapiens, UniProt P24941); test: as §1; type: protein-complex assay
[6] = target: CDK6/cyclin D3 (Homo sapiens) (UniProt P30281+Q00534); test: CDK6/cyclinD3 Invitrogen kinase activity assay; type: protein-complex assay; conditions: Compound concentration 1.0 uM
[7] = target: T1, Serine/threonine-protein kinase Chk1 (Homo sapiens) (UniProt O14757); test: CHK1 Invitrogen kinase activity assay; conditions: Compound concentration 1.0 uM
T1 sequence (whole entry): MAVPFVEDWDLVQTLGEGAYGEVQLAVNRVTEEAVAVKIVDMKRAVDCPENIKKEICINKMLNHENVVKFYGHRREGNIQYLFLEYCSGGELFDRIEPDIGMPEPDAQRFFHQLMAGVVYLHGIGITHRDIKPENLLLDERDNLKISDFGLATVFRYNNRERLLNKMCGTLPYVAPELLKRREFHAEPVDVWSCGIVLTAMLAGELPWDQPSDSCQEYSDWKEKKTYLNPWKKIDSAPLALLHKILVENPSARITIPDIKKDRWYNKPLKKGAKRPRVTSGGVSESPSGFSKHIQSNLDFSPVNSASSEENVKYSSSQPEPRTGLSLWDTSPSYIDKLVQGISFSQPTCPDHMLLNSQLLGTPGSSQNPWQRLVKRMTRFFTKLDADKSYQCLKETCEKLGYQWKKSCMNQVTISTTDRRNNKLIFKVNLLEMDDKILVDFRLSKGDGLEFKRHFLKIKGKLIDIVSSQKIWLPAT

[8] = target: Serine/threonine-protein kinase Chk2 (Homo sapiens) (UniProt O96017); test: CHK2 Invitrogen kinase activity assay; conditions: Compound concentration 1.0 uM
[9] = target: Casein kinase II subunit alpha (Homo sapiens) (UniProt P68400); test: CK2 Invitrogen kinase activity assay; conditions: Compound concentration 1.0 uM
[10] = target: Ephrin type-A receptor 2 (Homo sapiens) (UniProt P29317); test: ECK Invitrogen kinase activity assay; conditions: Compound concentration 1.0 uM
Chain of Ephrin type-A receptor 2 (Homo sapiens) (P29317 whole entry): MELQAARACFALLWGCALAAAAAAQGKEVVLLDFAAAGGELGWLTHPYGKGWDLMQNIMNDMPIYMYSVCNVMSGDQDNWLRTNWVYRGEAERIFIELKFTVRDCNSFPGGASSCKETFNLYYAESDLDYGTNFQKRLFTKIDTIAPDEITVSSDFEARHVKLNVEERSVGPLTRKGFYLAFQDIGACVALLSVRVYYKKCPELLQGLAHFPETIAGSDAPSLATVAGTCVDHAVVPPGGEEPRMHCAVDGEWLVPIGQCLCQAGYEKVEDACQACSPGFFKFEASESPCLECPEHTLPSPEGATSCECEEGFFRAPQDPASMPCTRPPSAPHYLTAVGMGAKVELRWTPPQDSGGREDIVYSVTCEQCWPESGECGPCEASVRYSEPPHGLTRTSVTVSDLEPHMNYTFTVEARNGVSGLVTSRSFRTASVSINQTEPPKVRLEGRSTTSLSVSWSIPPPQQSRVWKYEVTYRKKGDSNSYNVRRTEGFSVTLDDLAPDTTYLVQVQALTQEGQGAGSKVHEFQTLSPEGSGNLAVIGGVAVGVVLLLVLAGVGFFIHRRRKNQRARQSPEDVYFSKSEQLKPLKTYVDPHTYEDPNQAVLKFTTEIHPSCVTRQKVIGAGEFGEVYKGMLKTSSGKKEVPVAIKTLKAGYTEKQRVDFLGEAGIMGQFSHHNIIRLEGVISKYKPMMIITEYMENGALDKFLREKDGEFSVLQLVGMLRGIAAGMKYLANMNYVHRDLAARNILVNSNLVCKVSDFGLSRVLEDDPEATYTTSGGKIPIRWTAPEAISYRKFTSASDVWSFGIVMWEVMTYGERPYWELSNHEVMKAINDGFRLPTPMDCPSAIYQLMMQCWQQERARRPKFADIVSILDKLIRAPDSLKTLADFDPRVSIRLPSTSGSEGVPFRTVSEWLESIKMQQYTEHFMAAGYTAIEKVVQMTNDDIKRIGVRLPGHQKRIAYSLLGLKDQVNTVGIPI

[11] = target: Glycogen synthase kinase-3 beta (Homo sapiens, UniProt P49841); test: GSK3beta Invitrogen kinase activity assay
[12] = target: Insulin receptor (Homo sapiens) (UniProt P06213); test: INSR Invitrogen kinase activity assay; conditions: Compound concentration 1.0 uM
[13] = target: Mitogen-activated protein kinase kinase kinase 9 (Homo sapiens, UniProt P80192); test: MAP3K9 Invitrogen kinase activity assay
[14] = target: Mitogen-activated protein kinase 1 (Homo sapiens) (UniProt P28482); test: MAPK1/ERK2 Invitrogen kinase activity assay; conditions: Compound concentration 1.0 uM
[15] = target: MAP kinase-activated protein kinase 2 (Homo sapiens) (UniProt P49137); test: MAPKAPK2 Invitrogen kinase activity assay; conditions: Compound concentration 1.0 uM
[16] = target: Serine/threonine-protein kinase MARK1 (Homo sapiens, UniProt Q9P0L2); test: MARK1 Invitrogen kinase activity assay
[17] = target: Serine/threonine-protein kinase 26 (Homo sapiens) (UniProt Q9P289); test: MASK Invitrogen kinase activity assay; conditions: Compound concentration 1.0 uM
[18] = target: NEK kinase (Homo sapiens) (UniProt P51955+Q9HC98+Q8TDX7+Q6P3R8+Q8TD19+Q8NG66+P51956+P51957+Q96PY6+Q86SG6+Q6ZWH5); test: NEK Invitrogen kinase activity assay; type: protein assay; conditions: Compound concentration 1.0 uM
[19] = target: Serine/threonine-protein kinase pim-2 (Homo sapiens) (UniProt Q9P1W9); test: PIM2 Invitrogen kinase activity assay; conditions: Compound concentration 1.0 uM
[20] = target: Protein kinase C beta type (Homo sapiens) (UniProt P05771); test: PKCbeta II Invitrogen kinase activity assay; conditions: Compound concentration 1.0 uM
[21] = target: Protein kinase C zeta type (Homo sapiens) (UniProt Q05513); test: PKCzeta Invitrogen kinase activity assay; conditions: Compound concentration 1.0 uM
[22] = target: Rho-associated protein kinase 1 (Homo sapiens) (UniProt Q13464); test: ROCK1 Invitrogen kinase activity assay; conditions: Compound concentration 1.0 uM
[23] = test system: Ribosomal protein S6 kinase beta-1 (Homo sapiens), P23443 [UNDEFINED MUTATION]; test: S6K T389D D3E Invitrogen kinase activity assay; conditions: Compound concentration 1.0 uM
Chain of Ribosomal protein S6 kinase beta-1 (Homo sapiens), P23443 [UNDEFINED MUTATION] (P23443 whole entry, looked up, stated change not applied): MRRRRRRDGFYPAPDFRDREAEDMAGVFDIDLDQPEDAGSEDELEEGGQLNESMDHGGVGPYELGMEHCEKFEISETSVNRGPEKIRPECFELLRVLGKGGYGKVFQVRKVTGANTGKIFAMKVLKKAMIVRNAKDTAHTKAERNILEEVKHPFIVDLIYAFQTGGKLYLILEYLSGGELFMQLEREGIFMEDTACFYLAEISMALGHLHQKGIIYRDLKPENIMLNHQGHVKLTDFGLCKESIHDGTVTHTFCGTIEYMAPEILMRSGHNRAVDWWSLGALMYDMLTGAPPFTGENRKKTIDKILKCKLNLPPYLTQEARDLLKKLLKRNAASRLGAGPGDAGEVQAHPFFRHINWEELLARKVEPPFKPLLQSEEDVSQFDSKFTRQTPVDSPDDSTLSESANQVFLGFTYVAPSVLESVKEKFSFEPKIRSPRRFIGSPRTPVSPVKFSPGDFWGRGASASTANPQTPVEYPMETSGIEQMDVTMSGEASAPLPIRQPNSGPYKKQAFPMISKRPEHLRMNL

[24] = target: Vascular endothelial growth factor receptor 2 (Homo sapiens) (UniProt P35968); test: VEGFR2/Flk1 Invitrogen kinase activity assay; conditions: Compound concentration 1.0 uM
[25] = target: Protein-tyrosine kinase 6 (Homo sapiens) (UniProt Q13882)
Chain of Protein-tyrosine kinase 6 (Homo sapiens) (Q13882 whole entry, looked up): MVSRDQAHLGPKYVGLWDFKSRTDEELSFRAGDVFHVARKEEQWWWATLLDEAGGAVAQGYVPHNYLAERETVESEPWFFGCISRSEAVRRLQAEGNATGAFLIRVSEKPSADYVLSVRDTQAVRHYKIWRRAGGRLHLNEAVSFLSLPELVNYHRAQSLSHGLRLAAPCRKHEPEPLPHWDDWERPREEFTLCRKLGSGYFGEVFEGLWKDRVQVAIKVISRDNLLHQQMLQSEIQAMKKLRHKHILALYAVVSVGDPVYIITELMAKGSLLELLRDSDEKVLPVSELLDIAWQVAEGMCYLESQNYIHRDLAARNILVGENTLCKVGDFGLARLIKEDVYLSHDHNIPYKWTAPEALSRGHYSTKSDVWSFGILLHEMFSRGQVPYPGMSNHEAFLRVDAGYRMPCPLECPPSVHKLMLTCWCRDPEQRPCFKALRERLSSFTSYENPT

[26] = target: 5-hydroxytryptamine receptor 1A (Homo sapiens) (UniProt P08908); conditions: Compound concentration 10.0 uM
[27] = target: High affinity nerve growth factor receptor (Homo sapiens) (UniProt P04629); conditions: Compound concentration 1.0 uM
[28] = GPCRScan assay: inhibition of GABA/PBR; design: species or system Rattus norvegicus; radioligand conc. used [nm] 0.3 – 2.0, parental cells brain tissue
[29] = target: Focal adhesion kinase 1 (Homo sapiens, UniProt Q05397); test: Binding assay (PTK2)
[30] = target: D(2) dopamine receptor (Homo sapiens) (UniProt P14416); conditions: Compound concentration 10.0 uM
[31] = target: Mu-type opioid receptor (Homo sapiens) (UniProt P35372); conditions: Compound concentration 10.0 uM
Chain of Mu-type opioid receptor (Homo sapiens) (P35372 whole entry): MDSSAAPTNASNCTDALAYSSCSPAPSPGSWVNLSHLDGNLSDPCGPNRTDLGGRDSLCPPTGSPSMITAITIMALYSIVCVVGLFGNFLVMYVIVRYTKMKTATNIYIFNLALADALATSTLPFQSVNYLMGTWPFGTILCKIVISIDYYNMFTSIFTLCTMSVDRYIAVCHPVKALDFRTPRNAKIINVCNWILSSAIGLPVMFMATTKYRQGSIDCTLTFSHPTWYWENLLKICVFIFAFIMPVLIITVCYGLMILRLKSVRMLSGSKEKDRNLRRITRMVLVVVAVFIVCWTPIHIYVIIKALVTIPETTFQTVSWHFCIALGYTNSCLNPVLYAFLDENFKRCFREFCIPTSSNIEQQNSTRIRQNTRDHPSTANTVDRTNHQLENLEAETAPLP

Chain of Tyrosine-protein kinase ABL1 (P00519 whole entry): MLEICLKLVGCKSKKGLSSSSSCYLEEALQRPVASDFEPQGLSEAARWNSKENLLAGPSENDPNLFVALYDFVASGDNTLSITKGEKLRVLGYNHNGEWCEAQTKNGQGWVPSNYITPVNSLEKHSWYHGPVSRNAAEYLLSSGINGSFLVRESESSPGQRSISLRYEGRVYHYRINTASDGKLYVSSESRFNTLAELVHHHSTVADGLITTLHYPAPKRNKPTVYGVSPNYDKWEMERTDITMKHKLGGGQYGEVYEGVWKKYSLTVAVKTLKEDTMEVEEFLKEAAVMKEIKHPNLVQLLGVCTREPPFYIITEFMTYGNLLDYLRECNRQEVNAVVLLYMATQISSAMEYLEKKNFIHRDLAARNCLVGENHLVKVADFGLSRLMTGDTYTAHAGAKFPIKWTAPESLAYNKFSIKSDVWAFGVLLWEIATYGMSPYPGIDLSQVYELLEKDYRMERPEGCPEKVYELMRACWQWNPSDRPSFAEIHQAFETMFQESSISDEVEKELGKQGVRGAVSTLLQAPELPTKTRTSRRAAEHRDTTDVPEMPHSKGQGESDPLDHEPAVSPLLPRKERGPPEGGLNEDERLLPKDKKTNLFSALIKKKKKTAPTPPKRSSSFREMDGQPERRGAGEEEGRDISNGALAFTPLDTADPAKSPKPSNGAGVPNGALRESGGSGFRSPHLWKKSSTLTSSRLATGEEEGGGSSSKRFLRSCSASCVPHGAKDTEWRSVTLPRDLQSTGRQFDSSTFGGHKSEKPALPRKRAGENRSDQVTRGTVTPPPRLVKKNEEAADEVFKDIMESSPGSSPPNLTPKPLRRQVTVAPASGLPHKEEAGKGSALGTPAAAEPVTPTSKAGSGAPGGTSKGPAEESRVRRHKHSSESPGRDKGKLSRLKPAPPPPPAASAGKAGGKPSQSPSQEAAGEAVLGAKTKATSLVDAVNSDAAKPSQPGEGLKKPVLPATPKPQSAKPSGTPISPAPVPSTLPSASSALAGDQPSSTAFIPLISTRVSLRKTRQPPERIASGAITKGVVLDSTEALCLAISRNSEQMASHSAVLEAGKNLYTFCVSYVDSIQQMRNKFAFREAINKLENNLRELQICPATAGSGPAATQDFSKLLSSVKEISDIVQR
Chain of Vascular endothelial growth factor receptor 1 (P17948 whole entry): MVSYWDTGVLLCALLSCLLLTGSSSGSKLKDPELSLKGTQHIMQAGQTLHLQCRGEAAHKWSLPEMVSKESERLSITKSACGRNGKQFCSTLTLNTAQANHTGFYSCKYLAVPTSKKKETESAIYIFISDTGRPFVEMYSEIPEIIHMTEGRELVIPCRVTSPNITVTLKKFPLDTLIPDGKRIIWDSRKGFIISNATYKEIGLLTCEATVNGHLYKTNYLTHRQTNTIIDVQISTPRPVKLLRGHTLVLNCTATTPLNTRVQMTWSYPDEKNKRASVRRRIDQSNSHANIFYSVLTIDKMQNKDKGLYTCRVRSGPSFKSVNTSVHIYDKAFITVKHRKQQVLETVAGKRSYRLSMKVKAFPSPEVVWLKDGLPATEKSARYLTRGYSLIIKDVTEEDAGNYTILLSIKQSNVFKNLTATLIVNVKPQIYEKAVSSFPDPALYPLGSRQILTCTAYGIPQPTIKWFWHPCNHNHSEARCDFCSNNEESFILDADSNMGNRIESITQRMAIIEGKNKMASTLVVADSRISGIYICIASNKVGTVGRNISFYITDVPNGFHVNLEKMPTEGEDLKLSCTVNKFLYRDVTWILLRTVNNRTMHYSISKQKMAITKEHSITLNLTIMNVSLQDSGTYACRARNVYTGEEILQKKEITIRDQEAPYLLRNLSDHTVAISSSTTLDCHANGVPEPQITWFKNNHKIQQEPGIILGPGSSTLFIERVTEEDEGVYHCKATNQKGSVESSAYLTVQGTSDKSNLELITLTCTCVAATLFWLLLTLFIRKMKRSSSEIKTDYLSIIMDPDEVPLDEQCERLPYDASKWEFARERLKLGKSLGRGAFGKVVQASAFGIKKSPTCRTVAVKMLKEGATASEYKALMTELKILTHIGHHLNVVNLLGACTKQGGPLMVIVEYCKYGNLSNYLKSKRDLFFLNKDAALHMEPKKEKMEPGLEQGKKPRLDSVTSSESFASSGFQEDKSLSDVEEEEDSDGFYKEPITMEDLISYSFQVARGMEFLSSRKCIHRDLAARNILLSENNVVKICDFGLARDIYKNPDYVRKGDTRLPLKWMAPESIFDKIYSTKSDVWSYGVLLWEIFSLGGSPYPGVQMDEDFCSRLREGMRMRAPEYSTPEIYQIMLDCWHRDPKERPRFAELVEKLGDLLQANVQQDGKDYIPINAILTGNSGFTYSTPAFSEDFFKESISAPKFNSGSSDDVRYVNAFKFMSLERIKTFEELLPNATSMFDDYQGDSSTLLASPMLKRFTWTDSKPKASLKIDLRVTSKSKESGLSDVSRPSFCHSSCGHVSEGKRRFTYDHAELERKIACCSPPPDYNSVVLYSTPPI

SMILES: CNC(=O)c1ccc(Nc2ncc(C(F)(F)F)c(NCc3nccnc3N(C)S(C)(=O)=O)n2)cc1 [DEFACTINIB]
- IC50 [1]: 2500 nM (not active)
- IC50 [2]: 1640 nM
- inhibition ([2]; Compound concentration 1.0 uM): 34%
- inhibition [3]: 4%
- inhibition [4]: 72%
- IC50 [5]: 344 nM
- inhibition [6]: 13%
- inhibition [7]: 23%
- inhibition [8]: 28%
- inhibition [9]: 43%
- inhibition [10]: 18%
- IC50 [11]: 416 nM
- inhibition ([11]; Compound concentration 1.0 uM): 83%
- inhibition [12]: 50%
- IC50 [13]: 75.3 nM
- inhibition ([13]; Compound concentration 1.0 uM): 98%
- inhibition [14]: 35%
- inhibition [15]: 2%
- IC50 [16]: 448 nM
- inhibition ([16]; Compound concentration 1.0 uM): 81%
- inhibition [17]: 46%
- inhibition [18]: 12%
- inhibition [19]: 0%
- inhibition [20]: 15%
- inhibition [21]: 10%
- inhibition [22]: 20%
- inhibition [23]: 18%
- inhibition [24]: 68%
- residual activity ([25]; Compound concentration 100.0 nM): 100%
- inhibition [26]: -9.76%
- inhibition [27]: 97%

SMILES: CN(c1ccnc(CNc2nc(Nc3ccc4c(c3)CC(=O)N4)ncc2C(F)(F)F)n1)S(C)(=O)=O [PF-00911705]
- Ki [28]: 1480 nM
- pKi [28]: 5.83
- IC50 [29]: 721 nM (not active)
- residual activity ([25]; Compound concentration 1000.0 nM): 100%
- inhibition [30]: 9.12%
- inhibition [31]: 0.77%
